Measurements taken from BigSolDB 2.1.

C[C@H]1[C@H](C)CC[C@]2(C(=O)O[C@@H]3O[C@H](CO[C@@H]4O[C@H](CO)[C@@H](O[C@@H]5O[C@@H](C)[C@H](O)[C@@H](O)[C@H]5O)[C@H](O)[C@H]4O)[C@@H](O)[C@H](O)[C@H]3O)CC[C@]3(C)C(=CC[C@@H]4[C@@]5(C)C[C@@H](O)[C@H](O)[C@@](C)(CO)[C@@H]5CC[C@]43C)[C@H]12
solubility (mole fraction) (in ethanol, 298.15 K): 0.00014 | solubility (mole fraction) (in ethanol, 303.15 K): 0.000142 | solubility (mole fraction) (in ethanol, 308.15 K): 0.000146 | solubility (mole fraction) (in ethanol, 313.15 K): 0.000152 | solubility (mole fraction) (in ethanol, 318.15 K): 0.000165 | solubility (mole fraction) (in ethanol, 323.15 K): 0.000176 | solubility (mole fraction) (in ethanol, 328.15 K): 0.000195 | solubility (mole fraction) (in ethanol, 333.15 K): 0.000217 | solubility (mole fraction) (in methanol, 278.15 K): 0.000902 | solubility (mole fraction) (in methanol, 283.15 K): 0.000904 | solubility (mole fraction) (in methanol, 288.15 K): 0.000973 | solubility (mole fraction) (in methanol, 293.15 K): 0.00103 | solubility (mole fraction) (in methanol, 298.15 K): 0.00113 | solubility (mole fraction) (in methanol, 303.15 K): 0.00122 | solubility (mole fraction) (in methanol, 308.15 K): 0.00139 | solubility (mole fraction) (in methanol, 313.15 K): 0.0016 | solubility (mole fraction) (in methanol, 318.15 K): 0.00182 | solubility (mole fraction) (in methanol, 323.15 K): 0.00216 | solubility (mole fraction) (in methanol, 328.15 K): 0.00253 | solubility (mole fraction) (in n-butanol, 298.15 K): 2.44e-05 | solubility (mole fraction) (in n-butanol, 303.15 K): 2.93e-05 | solubility (mole fraction) (in n-butanol, 308.15 K): 3.45e-05 | solubility (mole fraction) (in n-butanol, 313.15 K): 4.22e-05 | solubility (mole fraction) (in n-butanol, 318.15 K): 5.1e-05 | solubility (mole fraction) (in n-butanol, 323.15 K): 6.36e-05 | solubility (mole fraction) (in n-butanol, 328.15 K): 8.03e-05 | solubility (mole fraction) (in n-butanol, 333.15 K): 0.000101 | solubility (mole fraction) (in n-butanol, 338.15 K): 0.000132 | solubility (mole fraction) (in n-butanol, 343.15 K): 0.000175 | solubility (mole fraction) (in n-propanol, 298.15 K): 5.2e-05 | solubility (mole fraction) (in n-propanol, 303.15 K): 6.06e-05 | solubility (mole fraction) (in n-propanol, 308.15 K): 6.78e-05 | solubility (mole fraction) (in n-propanol, 313.15 K): 8.06e-05 | solubility (mole fraction) (in n-propanol, 318.15 K): 9.61e-05 | solubility (mole fraction) (in n-propanol, 323.15 K): 0.000119 | solubility (mole fraction) (in n-propanol, 328.15 K): 0.000144 | solubility (mole fraction) (in n-propanol, 333.15 K): 0.000181 | solubility (mole fraction) (in n-propanol, 338.15 K): 0.00023 | solubility (mole fraction) (in n-propanol, 343.15 K): 0.000304 | solubility (mole fraction) (in water, 298.15 K): 1.9e-06 | solubility (mole fraction) (in water, 303.15 K): 2.1e-06 | solubility (mole fraction) (in water, 308.15 K): 2.5e-06 | solubility (mole fraction) (in water, 313.15 K): 3.1e-06 | solubility (mole fraction) (in water, 318.15 K): 4.2e-06 | solubility (mole fraction) (in water, 323.15 K): 5.4e-06 | solubility (mole fraction) (in water, 328.15 K): 7.1e-06 | solubility (mole fraction) (in water, 333.15 K): 1.02e-05
